From BindingDB's records for doi:10.7270/Q2PG1Q5Z (Broad Institute, 2010)

The compounds below were run against T1, Alkanal monooxygenase alpha chain (Vibrio harveyi, UniProt P07740) (assay: AI-2 quorum sensing inhibitors, bioluminescence, confirmation, luminescence, dose retest, Vibrio harveyi (AID 2735)).
T1 sequence (P07740 whole entry): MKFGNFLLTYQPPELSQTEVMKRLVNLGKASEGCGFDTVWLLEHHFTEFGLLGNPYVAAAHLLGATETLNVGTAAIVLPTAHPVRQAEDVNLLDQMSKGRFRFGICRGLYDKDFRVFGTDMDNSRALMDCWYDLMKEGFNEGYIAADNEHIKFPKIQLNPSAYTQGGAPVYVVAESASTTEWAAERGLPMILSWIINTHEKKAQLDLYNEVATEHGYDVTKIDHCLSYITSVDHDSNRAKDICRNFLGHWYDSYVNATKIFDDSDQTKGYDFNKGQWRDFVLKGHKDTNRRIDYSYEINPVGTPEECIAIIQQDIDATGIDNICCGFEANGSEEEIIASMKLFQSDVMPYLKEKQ

SMILES	EC50 [µM]
CCc1ccc(S(=O)(=O)Nc2ccc(Br)cn2)cc1 [MLS001211346]	18.1
CN(C)S(=O)(=O)c1ccc(NC(=S)NC(=O)Cc2ccccc2)cc1 [N-[[4-(dimethylsulfamoyl)phenyl]carbamothioyl]-2-phenyl-ethanamide]	> 160
Cn1cnc(S(=O)(=O)Nc2ccc(OC(F)(F)F)cc2)c1 [SMR000314513]	24.5
CCCc1ccc(S(=O)(=O)N(C)S(=O)(=O)c2ccc(F)cc2)cc1 [N-(4-fluorophenyl)sulfonyl-N-methyl-4-propylbenzenesulfonamide]	8.81
COc1cc(NC(=O)CN2C(=O)NC(c3ccccc3)(c3ccccc3)C2=O)cc(OC)c1 [MLS001176525]	10
C=Cn1c(C(=O)O)ccc1-c1ccc(CC)cc1	25.8
Cc1cccc(NS(=O)(=O)c2ccc(Oc3ccccc3)cc2)n1 [SMR000071466]	12.5
